Legend:
Format in all cases: in vivo, rat
[1] = test system: Dahl salt-sensitive rats (SS/JrHsd) on high salt diet; experiment: Heart weight/body weight ratio in Dahl salt-sensitive rats on high salt diet; details: both doses (10 mg/l and 1 mg/l in drinking water), 7 weeks, FIG. 1
Description: (§1) 6-week-old male Dahl salt-sensitive rats (SS/JrHsd) received the following diet and drug regimens for 7 weeks: 1) Dahl SS controls on high salt diet, 2) Dahl SS rats on high salt diet+high-dose levosimendan (10 mg/l of levosimendan in drinking water), 3) Dahl SS rats on high salt diet+low-dose levosimendan (1 mg/l of levosimendan in drinking water) and 4) Dahl SS controls on low salt diet. High salt diet was produced by adding NaCl to commercial low salt diet. The consumption of drinking water and food as well as the body weight and general health of the animals were monitored. Systolic blood pressure was measured by using a tail cuff blood pressure at week 3.5 and week 7. At the end the study the hearts was excised, washed with ice-cold saline, blotted dry and weighed.

[2] = test system: Dahl salt-sensitive rats (SS/JrHsd) on high salt diet; experiment: Systolic blood pressure by tail cuff in Dahl salt-sensitive rats; details: data not shown
Description: as §1

[3] = test system: Myocardial SERCA2 and NCX expressions; experiment: Myocardial SERCA2/NCX protein ratio by Western blot; details: both doses (10 mg/l and 1 mg/l in drinking water), 7 weeks, high salt diet; FIG. 2
Description: as §1
Myocardial SERCA2 and NCX expressions were determined by Western blot analysis using standard procedure. Myocardial samples were homogenized in extraction buffer and protease inhibitor. Myocardial samples (15 μg protein per lane) were electrophoretically separated by SDS-PAGE (8% Acryl amide). The proteins were transferred to a PVDF membrane by semi-dry blotting in electrophoresis device. […] The films were scanned in a densitometer and a semi-quantitative measurement of the relative intensity of each protein band was performed using the “GeneSnap”-software program.

[4] = test system: atrial natriuretic peptide (ANP) mRNA; experiment: Myocardial atrial natriuretic peptide (ANP) mRNA expression by quantitative real time PCR; details: high dose (10 mg/l in drinking water), 7 weeks, high salt diet; FIG. 3
Description: as §1, with “At the end the study the hearts was excised, washed with ice-cold saline, blotted dry and weighed.” left out
Total RNA from the rat hearts were collected, treated with DNAse 1 and reverse transcribed to cDNA by incubation of 50 min in 45° C. with presence of reverse transcription enzyme (Enhanced avian HS RT-PCR kit, Sigma Chemicals Co.). 1 μl of cDNA was subjected to a quantitative real time polymerase chain reaction by Lightcycler instrument (Roche Diagnostics) for detection of ANP and GAPDH mRNAs. […] After amplification the quality of PCR products were analyzed with the melting step consisting of heating to 95° C., cooling to annealing temperature for 15 seconds, and finally a slow rise in temperature to 95° C. with a continuous acquisition of fluorescence decline. […]

[5] = test system: Dahl salt-sensitive rats (SS/JrHsd) on high salt diet; experiment: Echocardiography: interventricular septum (IVS) wall thickness; details: 3.5 weeks, FIG. 4
Description: 6-week-old male Dahl salt-sensitive rats (SS/JrHsd) received the following diet and drug regimens: Dahl salt-sensitive rats on low salt diet (1), on high salt diet (2), on high salt diet treated with 10 mg/l of levosimendan in drinking water (3), on high salt diet treated with 1 mg/l of levosimendan in drinking water (4) and on high salt diet treated with 0.5 mg/kg of the active metabolite (II) (OR-1896) of levosimendan in drinking water (5). High salt diet was produced by adding NaCl to commercial low salt diet. After 3.5 weeks transthoracic echocardiography was performed using a Toshiba Ultrasound System and a 15 MHz linear transducer under light isoflurane anesthesia. Using two-dimensional imaging, a short axis view of the left ventricle at the level of the papillary muscles was obtained and the two-dimensionally guided M-mode recording through the anterior and posterior walls of the left ventricle was obtained.

SMILES | development of cardiac hypertrophy measured as heart weight-to-body weight-ratio [1] | blood pressure ([2]; high-dose (10 mg/l in drinking water)) | blood pressure ([2]; low-dose (1 mg/l in drinking water)) | myocardial SERCA2-to-NCX-ratio [3] | myocardial ANP mRNA expression [4] | Interventricular septum (IVS) wall thickness ([5]; 10 mg/l and 1 mg/l in drinking water) | Interventricular septum (IVS) wall thickness ([5]; 0.5 mg/kg in drinking water)
CC1CC(=O)NN=C1c1ccc(NN=C(C#N)C#N)cc1 (single isomer, unassigned; (-)) [Levosimendan, (−)-enantiomer of [[4-(1,4,5,6-tetrahydro-4-methyl-6-oxo-3-pyridazinyl)phenyl]hydrazono]propanedinitrile] | equally prevented the development of cardiac hypertrophy | produced a transient decrease in blood pressure | did not influence blood pressure | increased SERCA2-to-NCX-ratio in the heart | decrease ANP mRNA expression to levels found in low salt diet controls | significantly reduce the increased heart wall thickness | 
CC(=O)Nc1ccc(C2=NNC(=O)C[C@H]2C)cc1 [active metabolite (II), (R)-N-[4-(1,4,5,6-tetrahydro-4-methyl-6-oxo-3-pyridazinyl)phenyl]acetamide] |  |  |  |  |  |  | significantly reduce the increased heart wall thickness
